Source: ChEMBL document CHEMBL4610017, “Discovery of 1,2,4-oxadiazole derivatives as a novel class of noncompetitive inhibitors of 3-hydroxykynurenine transaminase (HKT) from Aedes aegypti” (Bioorg Med Chem, 2020)
The source made the active and inactive calls. No cut-off for these calls is given here.

Columns and labels:
[1] = Inhibition of recombinant Aedes aegypti RecLab N-terminal Trx-fused/His6-tagged 3-hydroxykynurenine transaminase H360M mutant expressed in Escherichia coli Rosetta 2 (DE3) assessed as conversion of 3-hydroxy kynurenine to xanthurenic-acid using 3-D,L hydroxy kynurenine as substrate preincubated with PLP cofactor and enzyme and 30 mins later incubated with 3-D,L-HK and measured after 5 mins by microplate reader assay
[2] = Competitive inhibition of Anopheles gambiae 3-hydroxykynurenine transaminase
[3] = Binding affinity to recombinant Aedes aegypti RecLab N-terminal Trx-fused/His6-tagged 3-hydroxykynurenine transaminase H360M mutant expressed in Escherichia coli Rosetta 2 (DE3) assessed as inhibition constant for enzyme-substrate complex
Aedes aegypti = test: Non-competitive mixed inhibition of recombinant Aedes aegypti RecLab N-terminal Trx-fused /His6-tagged 3-hydroxykynurenine transaminase H360M mutant expressed in Escherichia coli Rosetta 2 (DE3) using varying level of 3-D,L hydroxy kynurenine as substrate by Lineweaver-Burk plot analysis
[4] = Binding affinity to recombinant Aedes aegypti RecLab N-terminal Trx-fused/His6-tagged 3-hydroxykynurenine transaminase H360M mutant expressed in Escherichia coli Rosetta 2 (DE3) assessed as inhibition constant for free form of enzyme

O=C(O)CCCc1nc(-c2ccc(Cl)c(Cl)c2)no1
IC50 [1]: 64 µM

Nc1ccccc1C(=O)CCC(=O)O
Ki [2]: 300 µM

Cc1ccc(-c2noc(CCCC(=O)O)n2)cc1
IC50 [1]: 88 µM

O=C(O)CCCc1nc(-c2ccc3c(c2)OCO3)no1
IC50 [1]: 87 µM

O=C(O)CCCc1nc(-c2ccc(C(F)(F)F)cc2)no1
IC50 [1]: 70 µM

O=C(O)CCCc1nc(-c2ccccc2)no1
Ki [3]: 1220 µM
inhibition (Aedes aegypti): Active
Ki [4]: 360 µM
IC50 [1]: 72 µM

O=C(O)CCCc1nc(-c2ccc(I)cc2)no1
IC50 [1]: 42 µM

O=C(O)CCCc1nc(-c2ccc(Br)cc2)no1
IC50 [1]: 110 µM

O=C(O)CCCc1nc(-c2ccc(Cl)cc2)no1
IC50 [1]: 294 µM

O=C(O)CCCc1nc(-c2cccc3ccccc23)no1
IC50 [1]: 63 µM

Cc1cccc(-c2noc(CCCC(=O)O)n2)c1
IC50 [1]: 54 µM

COc1ccc(-c2noc(CCCC(=O)O)n2)cc1
IC50 [1]: 101 µM
